Results reported in US11292792B2, “Tricyclic CRBN ligands and uses thereof” (Kymera Therapeutics, Inc., priority 2018, dated 2022).
Read-outs that look alike come from different tables or passages of the source.

Biological target: His-tagged CRBN-DDB1 complex (Homo sapiens (Human), UniProt Q96SW2)
Assay: Time-resolved fluorescence resonance energy transfer (TR-FRET) assay, displacement of Cy5-labeled thalidomide
Type: binding
Procedure: Equal volumes of His-tagged CRBN-DDB1 complex (56 nM) was mixed with Eu-cryptate labeled Anti-6HIS-monoclonal antibody (50× dilution from the commercial stock solution, Vender: Cisbio, Cat. #61HI2KLA) in a final buffer containing 20 mM HEPES pH 7.0, 150 mM NaCl, 0.005% Tween-20. […] The mixture were incubated at room temperature for 1 hour. FRET signals were measured on an EnVision plate reader (Perkin Elmer) by exciting at 340 nm and recording emission at both 615 nm as no FRET control and 665 nm as the FRET signals with a 60 microsecond delay. FRET efficiency was calculated as the ratio of fluorescent signals at […]. Quantitative loss of FRET efficiency as a function of compound concentrations was fitted by a four-parameter Logistic Function using GraphPad Prism 7.0 and the IC50 values were reported for each compound.
The compound numbers correspond to the compound numbers in Table 1.

Sequence of His-tagged CRBN-DDB1 complex (Q96SW2 whole entry): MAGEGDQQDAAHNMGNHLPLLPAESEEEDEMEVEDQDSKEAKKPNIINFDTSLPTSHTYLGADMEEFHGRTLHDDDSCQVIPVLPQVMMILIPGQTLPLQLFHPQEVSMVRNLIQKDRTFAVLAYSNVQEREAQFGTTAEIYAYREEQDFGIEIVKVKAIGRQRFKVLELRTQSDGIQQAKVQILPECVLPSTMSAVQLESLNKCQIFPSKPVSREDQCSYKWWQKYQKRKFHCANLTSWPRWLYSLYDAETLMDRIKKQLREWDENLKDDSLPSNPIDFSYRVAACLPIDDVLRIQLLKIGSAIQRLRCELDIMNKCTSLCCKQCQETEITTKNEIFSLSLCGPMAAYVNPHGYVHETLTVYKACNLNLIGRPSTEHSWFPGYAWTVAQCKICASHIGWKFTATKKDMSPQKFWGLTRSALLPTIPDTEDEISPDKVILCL
Sequence of His-tagged CRBN-DDB1 complex (Q16531 whole entry partner): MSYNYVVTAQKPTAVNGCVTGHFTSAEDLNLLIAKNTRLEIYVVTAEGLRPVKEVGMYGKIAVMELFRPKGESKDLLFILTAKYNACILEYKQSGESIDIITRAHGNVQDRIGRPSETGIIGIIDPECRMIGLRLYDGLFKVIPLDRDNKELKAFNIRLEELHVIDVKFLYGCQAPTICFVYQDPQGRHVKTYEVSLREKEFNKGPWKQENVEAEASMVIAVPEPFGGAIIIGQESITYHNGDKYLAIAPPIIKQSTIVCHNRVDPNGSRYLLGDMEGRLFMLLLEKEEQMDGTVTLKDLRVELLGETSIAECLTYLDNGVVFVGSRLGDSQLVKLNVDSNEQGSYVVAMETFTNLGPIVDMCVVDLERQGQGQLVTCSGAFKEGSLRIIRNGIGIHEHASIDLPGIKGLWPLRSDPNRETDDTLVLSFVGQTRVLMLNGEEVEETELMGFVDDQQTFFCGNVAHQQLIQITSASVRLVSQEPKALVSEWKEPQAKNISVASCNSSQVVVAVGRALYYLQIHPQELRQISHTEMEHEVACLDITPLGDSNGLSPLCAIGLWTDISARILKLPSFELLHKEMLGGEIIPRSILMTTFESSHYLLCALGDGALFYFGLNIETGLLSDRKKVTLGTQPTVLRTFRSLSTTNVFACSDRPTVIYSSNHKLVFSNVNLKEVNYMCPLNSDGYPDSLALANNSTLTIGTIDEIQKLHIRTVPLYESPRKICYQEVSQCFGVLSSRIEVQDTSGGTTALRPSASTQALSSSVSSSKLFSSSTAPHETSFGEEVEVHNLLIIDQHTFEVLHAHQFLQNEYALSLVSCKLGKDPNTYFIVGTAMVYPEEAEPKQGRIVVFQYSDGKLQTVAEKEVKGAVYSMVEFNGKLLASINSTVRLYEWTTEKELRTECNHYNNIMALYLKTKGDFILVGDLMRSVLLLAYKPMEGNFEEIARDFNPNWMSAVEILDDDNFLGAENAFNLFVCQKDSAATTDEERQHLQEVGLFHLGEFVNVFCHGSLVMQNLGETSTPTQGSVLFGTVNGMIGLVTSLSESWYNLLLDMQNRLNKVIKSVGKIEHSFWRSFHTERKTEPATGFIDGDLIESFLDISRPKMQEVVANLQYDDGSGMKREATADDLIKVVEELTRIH

| Compound | IC50 (read-out: CRBN HTRF IC50) | IC50 |
| --- | --- | --- |
| Nc1cnc2c(c1)c1ccccc1n2C1CCC(=O)NC1=O (stereo not drawn) [I-39, 3-(3-amino-9H-pyrido[2,3-b]indol-9-yl)piperidine-2,6-dione] | < 10 µM |  |
| O=C1CCC(n2c3ccccc3c3ccsc32)C(=O)N1 (stereo not drawn) [I-72] | < 10 µM |  |
| CC(C)(C)OC(=O)NCCOCCOCCCc1ccc2c(c1)c1cccnc1n2C1CCC(=O)NC1=O (stereo not drawn) [I-62] | < 10 µM |  |
| O=C1CCC(n2c3ccccc3c3ccncc32)C(=O)N1 (stereo not drawn) [I-42] | > 100 µM |  |
| O=C1CCC(n2c3ccccc3c3ccc(O)nc32)C(=O)N1 (stereo not drawn) [I-83, 3-(2-hydroxy-9H-pyrido[2,3-b]indol-9-yl)piperidine-2,6-dione] | < 10 µM |  |
| CC(=O)Nc1ccc2c3ccccc3n(C3CCC(=O)NC3=O)c2n1 (stereo not drawn) [I-90, N-(9-(2,6-dioxopiperidin-3-yl)-9H-pyrido[2,3-b]indol-2-yl)acetamide] | 10 to 30 µM |  |
| O=C1CCC(n2ccn3c4ccccc4nc23)C(=O)N1 (stereo not drawn) [I-94] | 30 to 100 µM |  |
| O=C1CCC(n2c3ccccc3c3scnc32)C(=O)N1 (stereo not drawn) [I-66] | 10 to 30 µM |  |
| O=C1CCC(n2c3ccccc3c3ccc(F)nc32)C(=O)N1 (stereo not drawn) [I-84] | < 10 µM |  |
| O=C1CCC(n2c3ccccc3c3cnccc32)C(=O)N1 (stereo not drawn) [I-43] | 30 to 100 µM |  |
| N#Cc1ccc2c3ccccc3n(C3CCC(=O)NC3=O)c2n1 (stereo not drawn) [I-81, 9-(2,6-dioxopiperidin-3-yl)-9H-pyrido[2,3-b]indole-2-carbonitrile] | 10 to 30 µM |  |
| O=C1CCC(n2c3ccccc3c3ccccc32)C(=O)N1 (stereo not drawn) [I-1, 3-(9H-Carbazol-9-yl)piperidine-2,6-dione] | 10 to 30 µM |  |
| CNc1ccc2c(c1)c1cccnc1n2C1CCC(=O)NC1=O (stereo not drawn) [I-27, 3-(6-(methylamino)-9H-pyrido[2,3-b]indol-9-yl)piperidine-2,6-dione] | < 10 µM |  |
| O=C1CCC(n2c3c(c4cccnc42)CN(C(=O)CCCCCCCCO)CC3)C(=O)N1 (stereo not drawn) [I-68, 3-(6-(9-hydroxynonanoyl)-5,6,7,8-tetrahydro-9H-pyrrolo[2,3-b:4,5-c′]dipyridin-9-yl)piperidine-2,6-dione] | 30 to 100 µM |  |
| CC(C)(C)OC(=O)NCCOCCNC(=O)NCc1ccc2c(c1)c1cccnc1n2C1CCC(=O)NC1=O (stereo not drawn) [I-37, tert-butyl (2-(2-(3-((9-(2,6-dioxopiperidin-3-yl)-9H-pyrido[2,3-b]indol-6-yl)methyl)ureido)ethoxy)ethyl)carbamate] | 10 to 30 µM |  |
| CC(C)(C)OC(=O)NCCOCCOCCNc1ccc2c(c1)c1cccnc1n2C1CCC(=O)NC1=O (stereo not drawn) [I-35, tert-butyl (2-(2-(2-((9-(2,6-dioxopiperidin-3-yl)-9H-pyrido[2,3-b]indol-6-yl)amino)ethoxy)ethoxy)ethyl)carbamate] | < 10 µM |  |
| CC(C)(C)OC(=O)NCCOCCOC(=O)NCc1ccc2c(c1)c1cccnc1n2C1CCC(=O)NC1=O (stereo not drawn) [I-38, 2-(2-((tert-butoxycarbonyl)amino)ethoxy)ethyl ((9-(2,6-dioxopiperidin-3-yl)-9H-pyrido[2,3-b]indol-6-yl)methyl)carbamate] | < 10 µM |  |
| O=C1CCC(n2c3ccccc3c3c(CCCOCCOCCO)ccnc32)C(=O)N1 (stereo not drawn) [I-48] | < 10 µM |  |
| O=C1CCC(n2c3c(c4cccnc42)CCCC3)C(=O)N1 (stereo not drawn) [I-70] | 10 to 30 µM |  |

| Compound | IC50 (read-out: CRBN HTRF IC50) | IC50 |
| --- | --- | --- |
| Nc1ccc2c(c1)c1cccnc1n2C1CCC(=O)NC1=O (stereo not drawn) [I-5, 3-(6-Amino-9H-pyrido[2,3-b]indol-9-yl)piperidine-2,6-dione] | < 10 µM |  |
| CC(C)(C)OC(=O)NC1CCN(CCc2ccc3c(c2)c2cccnc2n3C2CCC(=O)NC2=O)CC1 (stereo not drawn) [I-71, tert-butyl (1-(2-(9-(2,6-dioxopiperidin-3-yl)-9H-pyrido[2,3-b]indol-6-yl)ethyl)piperidin-4-yl)carbamate] | < 10 µM |  |
| CC(C)(C)OC(=O)NCCOCCCc1ccc2c(c1)c1cccnc1n2C1CCC(=O)NC1=O (stereo not drawn) [I-34, tert-butyl (2-(3-(9-(2,6-dioxopiperidin-3-yl)-9H-pyrido[2,3-b]indol-6-yl)propoxy)ethyl)carbamate] | < 10 µM |  |
| CN(CCCOCCCc1ccc2c(c1)c1cccnc1n2C1CCC(=O)NC1=O)C(=O)OC(C)(C)C (stereo not drawn) [I-44] | < 10 µM |  |
| O=C1CCC(n2c3ccccc3c3c(Cl)csc32)C(=O)N1 (stereo not drawn) [I-93, 3-(3-chloro-8H-thieno[2,3-b]indol-8-yl)piperidine-2,6-dione] | < 10 µM |  |
| O=C1CCC(n2c3ccc(Br)cc3c3ccsc32)C(=O)N1 (stereo not drawn) [I-88] | < 10 µM |  |
| CC(C)(C)OC(=O)NCCOCCOCC#Cc1cccc2c1c1cccnc1n2C1CCC(=O)NC1=O (stereo not drawn) [I-61] | < 10 µM |  |
| CC(=O)Nc1ccc2c(c1)c1cccnc1n2C1CCC(=O)NC1=O (stereo not drawn) [I-8, N-(9-(2,6-Dioxopiperidin-3-yl)-9H-pyrido[2,3-b]indol-6-yl)acetamide] | < 10 µM |  |
| O=C1CCC(n2c3cc(Br)ccc3c3cccnc32)C(=O)N1 (stereo not drawn) [I-102, 3-3-(7-Bromopyrido[2,3-b]indol-9-yl)piperidine-2,6-dione] | 10 to 30 µM |  |
| CN(C)c1ccc2c3ccccc3n(C3CCC(=O)NC3=O)c2n1 (stereo not drawn) [I-80, 3-(2-(dimethylamino)-9H-pyrido[2,3-b]indol-9-yl)piperidine-2,6-dione] | 10 to 30 µM |  |
| O=C1CCC(n2c3c(c4cccnc42)CN(Cc2ccccc2)CC3)C(=O)N1 (stereo not drawn) [I-55, 3-(6-benzyl-7,8-dihydro-5H-pyrrolo[2,3-b:4,5-c′]dipyridin-9(6H)-yl)piperidine-2,6-dione] | 30 to 100 µM |  |
| O=C1CCC(n2c3ccc(CCCOCCOCCO)cc3c3cccnc32)C(=O)N1 (stereo not drawn) [I-46] | < 10 µM |  |
| CC(C)(C)OC(=O)NCCOCCOCC#Cc1ccc2c3ccccc3n(C3CCC(=O)NC3=O)c2n1 (stereo not drawn) [I-74] | 10 to 30 µM |  |
| Cc1ccnc2c1c1ccccc1n2C1CCC(=O)NC1=O (stereo not drawn) [I-77, 3-(4-methyl-9H-pyrido[2,3-b]indol-9-yl)piperidine-2,6-dione] | < 10 µM |  |
| O=C1CCC(n2c3cc(Cl)ccc3c3cccnc32)C(=O)N1 (stereo not drawn) [I-106, 3-(7-chloro-9H-pyrido[2,3-b]indol-9-yl)piperidine-2,6-dione] | 10 to 30 µM |  |
| N#Cc1ccc2c(c1)c1cccnc1n2C1CCC(=O)NC1=O (stereo not drawn) [I-32] | 10 to 30 µM |  |
| O=C1CCC(n2c3ccccc3c3ncsc32)C(=O)N1 (stereo not drawn) [I-87] | < 10 µM |  |
| O=C1CCC(n2c3ccccc3c3cc(CCCOCCOCCO)cnc32)C(=O)N1 (stereo not drawn) [I-54, 3-(3-(3-(2-(2-hydroxyethoxy)ethoxy)propyl)-9H-pyrido[2,3-b]indol-9-yl)piperidine-2,6-dione] | 10 to 30 µM |  |
| COc1nccc2c3ccccc3n(C3CCC(=O)NC3=O)c12 (stereo not drawn) [I-65] | 30 to 100 µM |  |

| Compound | IC50 (read-out: CRBN HTRF IC50) | IC50 |
| --- | --- | --- |
| Nc1ccc2c3ccccc3n(C3CCC(=O)NC3=O)c2n1 (stereo not drawn) [I-78] | < 10 µM |  |
| CC(C)(C)OC(=O)N1CCN(CCc2ccc3c(c2)c2cccnc2n3C2CCC(=O)NC2=O)CC1 (stereo not drawn) [I-64, tert-butyl 4-(2-(9-(2,6-dioxopiperidin-3-yl)-9H-pyrido[2,3-b]indol-6-yl)ethyl)piperazine-1-carboxylate] | < 10 µM |  |
| NCc1ccc2c3ccccc3n(C3CCC(=O)NC3=O)c2n1 (stereo not drawn) [I-91, 3-(2-(aminomethyl)-9H-pyrido[2,3-b]indol-9-yl)piperidine-2,6-dione] | 30 to 100 µM |  |
| O=C1CCC(n2c3ccccc3c3c(Br)csc32)C(=O)N1 (stereo not drawn) [I-89, 3-(3-bromo-8H-thieno[2,3-b]indol-8-yl)piperidine-2,6-dione] | < 10 µM |  |
| O=C1CCC(n2c3cc(CCCOCCOCCO)ccc3c3cccnc32)C(=O)N1 (stereo not drawn) [I-53] | 10 to 30 µM |  |
| CCOC(=O)Nc1ccc2c(c1)c1cccnc1n2C1CCC(=O)NC1=O (stereo not drawn) [I-29, ethyl (9-(2,6-dioxopiperidin-3-yl)-9H-pyrido[2,3-b]indol-6-yl)carbamate] | 10 to 30 µM |  |
| O=C1CCC(n2c3ccccc3c3c(Br)ccnc32)C(=O)N1 (stereo not drawn) [I-31] | < 10 µM |  |
| O=C1CCC(n2c3cccc(Br)c3c3ccsc32)C(=O)N1 (stereo not drawn) [I-103, 3-(4-bromo-8H-thieno[2,3-b]indol-8-yl)piperidine-2,6-dione] | < 10 µM |  |
| CC(C)(C)OC(=O)N1CCc2c(c3cccnc3n2C2CCC(=O)NC2=O)C1 (stereo not drawn) [I-40, tert-butyl 9-(2,6-dioxopiperidin-3-yl)-7,8-dihydro-5H-pyrrolo[2,3-b:4,5-c′]dipyridine-6(9H)-carboxylate] | 10 to 30 µM |  |
| N#Cc1ccnc2c1c1ccccc1n2C1CCC(=O)NC1=O (stereo not drawn) [I-76, 9-(2,6-dioxopiperidin-3-yl)-9H-pyrido[2,3-b]indole-4-carbonitrile] | < 10 µM |  |
| O=C1CCC(N2C(=O)CN=C(c3ccccc3)c3ccccc32)C(=O)N1 (stereo not drawn) [I-41] |  | 30 to 100 µM |
| O=C1CCC(n2c3ccccc3c3cccnc32)C(=O)N1 (stereo not drawn) [I-2, 3-(9H-pyrido[2,3-b]indol-9-yl)piperidine-2,6-dione] | < 10 µM |  |
| CC(C)(C)OC(=O)NCCOCCOCC#Cc1ccc2c(c1)c1cccnc1n2C1CCC(=O)NC1=O (stereo not drawn) [I-63] | < 10 µM |  |
| CNc1ccc2c3ccccc3n(C3CCC(=O)NC3=O)c2n1 (stereo not drawn) [I-79, 3-(2-(methylamino)-9H-pyrido[2,3-b]indol-9-yl)piperidine-2,6-dione] | < 10 µM |  |
| O=C1CCC(n2c3cccc(C#CCOCCOCCOCc4ccccc4)c3c3cccnc32)C(=O)N1 (stereo not drawn) [I-52] | < 10 µM |  |
| CC(C)(C)OC(=O)NCCOCCOCCCc1ccc2c3cccnc3n(C3CCC(=O)NC3=O)c2c1 (stereo not drawn) [I-58] | 10 to 30 µM |  |
| O=C1CCC(n2c3ccccc3c3ccc(Cl)nc32)C(=O)N1 (stereo not drawn) [I-75] | < 10 µM |  |
| O=C1CCC(n2c3ccncc3c3cccnc32)C(=O)N1 (stereo not drawn) [I-56, 3-(9H-pyrrolo[2,3-b:4,5-c′]dipyridin-9-yl)piperidine-2,6-dione] | 10 to 30 µM |  |
| O=C1CCC(n2c3cc(F)ccc3c3cccnc32)C(=O)N1 (stereo not drawn) [I-101] | < 10 µM |  |
